# Counter-ions that a name gives are not always drawn. Like-named read-outs stand apart in the source and are kept apart here.
# Experiments:
# [1] = tested on: Bacillus anthracis, Sterne 34F2; assay: microbe, parasite or virus in culture; type: cell-based; conditions: STERNE34F2, read-out: MIC B.a.
# [2] = tested on: Bacillus subtilis (ATCC 23857); assay: MIC determination, microbroth dilution; type: cell-based; conditions: ATCC23857; Bacillus subtilis (ATCC 23857); read-out: MIC B.s.
# [3] = tested on: Enterococcus faecalis (ATCC 33186); assay: MIC determination, microbroth dilution; type: cell-based; conditions: ATCC33186; Enterococcus faecalis (ATCC 33186); read-out: MIC E.f.
# [4] = tested on: Staphylococcus aureus (ATCC 29213); assay: MIC determination, microbroth dilution; type: cell-based; conditions: ATCC29213; Staphylococcus aureus (ATCC 29213); read-out: MIC S.a.
# [5] = tested on: MRSA, Staphylococcus aureus (NRS70); assay: MIC determination, microbroth dilution; type: cell-based; conditions: Staphylococcus aureus (NRS70); read-out: MIC MRSA
# [6] = tested on: Streptococcus pneumoniae (R6); assay: MIC determination, microbroth dilution; type: cell-based
# [7] = tested on: Burkholderia cepacia (ATCC 25416); assay: MIC determination, microbroth dilution; type: cell-based; conditions: Burkholderia cepacia
# E. coli K12 ΔtolC = assay: microbe, parasite or virus in culture; type: cell-based; conditions: Escherichia coli, read-out: MIC E.c. Δtolc
# [8] = tested on: Klebsiella pneumoniae (ATCC 33495); assay: MIC determination, microbroth dilution; type: cell-based; conditions: ATCC33495
# [9] = tested on: Proteus mirabilis (ATCC 25933); assay: MIC determination, microbroth dilution; type: cell-based; conditions: ATCC25933
# [10] = tested on: Proteus vulgaris (ATCC 33420); assay: MIC determination, microbroth dilution; type: cell-based; conditions: ATCC33420
# [11] = tested on: Stenotrophomonas maltophilia (ATCC 13637); assay: MIC determination, microbroth dilution; type: cell-based; conditions: ATCC13637; Stenotrophomonas maltophilia (ATCC 13637); read-out: MIC S.m.
# [12] = tested on: Legionella pneumophila (ATCC 33153); assay: microbe, parasite or virus in culture; type: cell-based; conditions: ATCC33153, 72 h, read-out: Zone of inhibition L.p.
# [13] = tested on: Neisseria meningitides (ATCC 13077); assay: Disc diffusion assay; type: cell-based; conditions: ATCC13077, 4 μg per disc, read-out: Zone of inhibition N.m.
# [14] = tested on: Neisseria gonorrhoeae (ATCC 49226); assay: Disc diffusion assay; type: cell-based; conditions: ATCC49226, 4 μg per disc, read-out: Zone of inhibition N.g.
# [15] = tested on: Neisseria gonorrhoeae (ATCC 49226); assay: Agar MIC determination (Alamar Blue); type: cell-based; conditions: ATCC49226, agar MIC, read-out: MIC N.g.
# Bacillus anthracis = assay: microbe, parasite or virus in culture; type: cell-based; conditions: read-out: MIC B.a.
# Yersinia pestis = assay: microbe, parasite or virus in culture; type: cell-based; conditions: read-out: MIC Y.p.
# [16] = tested on: live vaccine strain (LVS) of Francisella tularensis; assay: microbe, parasite or virus in culture; type: cell-based; conditions: Francisella tularensis, read-out: MIC F.t.
# [17] = tested on: M. tuberculosis clinical isolates; assay: microbe, parasite or virus in culture; type: cell-based; conditions: Mycobacterium tuberculosis, H37RV, read-out: MIC H37Rv
# S. pneumoniae D39x = assay: Mouse challenge, mouse model of lung infection; type: in vivo; conditions: p<0.02
# Experimental: Mice were treated with a 5 mg/kg dose b.i.d. of spectinomycin (indicated as “SPC” in the figure) or compound 2 (the compound number refers to the compound number and associated structure shown in Table 1), or vehicle. (Panel B) The bacterial burden of mice at 18 hours post-challenge with S. pneumoniae D39x. (Panel C) Representative bioluminescent images of mice at 72 hours post challenge.
# All experimental animal protocols were approved by the St. Jude Children's Research Hospital Institutional Animal Care and Use Committee. Seven week old, female BalbC/J mice (Jackson Labs, Bar Harbor, Me.) we utilized in these studies. All mice were maintained in BSL2 facilities and all experiments were done under inhaled isoflurane (2.5%). Bacteria (strain D39x) were introduced by intranasal administration of 2×10^7 CFU in 25 μL PBS. Mice received no treatment, plasmalyte A (vehicle control), ampicillin (100 mg/kg), spectinomycin (50, 25, 5 mg/kg) or the respective compounds (50, 25, 5 mg/kg) at dosages indicated. Antibiotics were administered in a volume of 100 μL by subcutaneous […] starting at 18 hours post challenge, a time point when the mice have developed pneumonia and bacteria have translocated into the bloodstream. Mice were subsequently dosed every 12 hours until 96 hours post challenge. Mice were monitored daily for signs of infection and weight loss. Differences in time to death were compared via Kaplan-Meier survival estimates. Bacterial density in blood was quantified at 24, 48, 72, and 96 hours post infection via blood collection, serial dilution, and plating. Groups were then compared by Mann-Whitney to determine statistical significance. At 8 days following challenge, surviving mice were euthanized and bacterial loads in lungs determined by homogenization followed by serial dilution and plating. In all instances, surviving mice had completely cleared bacteria from both the lungs and the bloodstream by this time point.
# Compound 2 was tested for anti-pneumococcal activity in mice as described above. […]
# Listeria monocytogenes = assay: MIC determination (Table 6); type: cell-based
# Moraxella catarrhalis = assay: MIC determination (Table 6); type: cell-based
structure (smiles),measurement,setting,value
"CN[C@@H]1[C@H](O)[C@H](NC)[C@H]2O[C@]3(O)[C@H](O[C@@H]2[C@H]1O)O[C@H](C)C[C@@]3(O)CNCc1ccc(F)cc1 [compound 2, 3′-(R)-3′-[(4-fluoro)benzylaminomethyl)]dihydrospectinomycin Trihydrochloride]",MIC,[1],25 µg/mL
same,MIC,[2],3.1 µg/mL
same,MIC,[3],12.5 to 25 µg/mL
same,MIC,[4],25 to 50 µg/mL
same,MIC,[5],50 µg/mL
same,MIC,"[6]; Streptococcus pneumoniae (R6), read-out: MIC S. pn.",1.6 to 3.1 µg/mL
same,MIC,"[6]; Streptococcus pneumoniae, S. pneumoniae R6, Drug Susceptible, read-out: MIC R6",3.1 µg/mL
same,MIC,"[7]; ATCC25416, read-out: MIC B.c., Burkholderia cepacia (ATCC 25416)",> 200 µg/mL
same,MIC,"[7]; ATCC25416, read-out: MIC B.c., Burkholderia cepacia, Table 6",> 200 µg/mL
same,MIC,E. coli K12 ΔtolC,6.3 µg/mL
same,MIC,[8],100 to 200 µg/mL
same,MIC,[9],> 200 µg/mL
same,MIC,[10],≥ 200 µg/mL
same,MIC,[11],25 µg/mL
same,zone of inhibition at 4 µg/disc,[12],32 to 49 mm
same,zone of inhibition at 4 µg/disc,[13],19 to 20 mm
same,zone of inhibition at 4 µg/disc,[14],16 to 19 mm
same,MIC,[15],25 µg/mL
same,MIC,Bacillus anthracis,25 µg/mL
same,MIC,Yersinia pestis,100 µg/mL
same,MIC,[16],1.6 to 3.1 µg/mL
same,MIC,[17],25 µg/mL
same,survival,"S. pneumoniae D39x; 5 mg/Kg BID subcutaneous, from 18 hours post intranasal challenge, vs vehicle and spectinomycin",significantly improved survival
same,bacterial burden in the blood,"S. pneumoniae D39x; 48 hours post-challenge, vs spectinomycin and vehicle",reduced significantly
same,MIC,Listeria monocytogenes,6.3 µg/mL
same,MIC,Moraxella catarrhalis,3.1 µg/mL

# Reference: patent US10266544B2, “Aryl substituted aminomethyl spectinomycin analogs as antibacterial agents” (ST. JUDE CHILDREN'S RESEARCH HOSPITAL, INC., priority 2013, dated 2019)
